{
  "source": "patent US6740679B1",
  "about": "“Nutritional supplement or pharmaceutical preparation comprising triglycerides with seven-carbon fatty acid” (Baylor University Medical Center, priority 1999, dated 2004)",
  "key": {"[1]": {"test_system": "fibroblasts with severe carnitine/acylcarnitine translocase deficiency (TRANSLOCASE)", "assay": "Tandem mass spectrometry assay of labeled fatty acid oxidation in cultured cells", "format": "cell-based, human", "conditions": "translocase-deficient fibroblasts; for accumulation of labeled acylcarnitine of the precursor: m/z417 for D3-C16, m/z305 for D3-C8, m/z319 for D3-C9", "method": "(§1) Fibroblasts taken from the deceased sibling and amniocytes taken from the fetus were both evaluated for fatty acid metabolism of n-heptanoic acid (C7) using a tandem mass spectrometry assay previously reported. (Yang, et al. 1998. “Identification of four novel mutations in patients with carnitine palmitoyltransferase II (CPT II) deficiency,” Mol Genet Metab 64:229-236). […] Each cell line was incubated separately with 7-^2H3-heptanoate (D3-C7), 8-^2H3-octanoate (D3-C8), 9-^2H3-nonanoate (D3-C9), and 16-^2H3-palmitate (D3-C16).\n(§2) The normal cell line and eleven abnormal cell lines were analyzed in groups of three. For quantitative purposes, labeled internal standards were included in each analysis and are designated as “IS” on the first profile in each group. The mass numbers for these standards are: m/z420 (^2H6-palmitate-C16), m/z308 (^2H6-octanoate-C8), m/z269 (^2H9-isovaleric-C5) , and m/z237 (^2H5-propionate-C3), wherein m/z is the mass:charge ratio.\n(§3) This relative ammount of m/z235 (^2H3-propionate-C3) is compared to the level of the internal standards at m/z269 (^2H9-isovaleric-C5) and m/z237 (^2H5-propionate-C3)."}, "[2]": {"test_system": "medium-chain acyl-CoA dehydrogenase (MCAD) deficient fibroblasts", "assay": "Tandem mass spectrometry assay of labeled fatty acid oxidation", "format": "cell-based, human", "conditions": "for accumulation of labeled acylcarnitine: C8 m/z305.3 from D3-C16, m/z305 for D3-C8, m/z291 heptanoylcarnitine for D3-C7", "method": "as §1, §2, §3"}, "[3]": {"test_system": "amniocytes from a fetus with severe translocase deficiency", "assay": "Tandem mass spectrometry assay of fatty acid oxidation in amniocytes", "format": "cell-based, human", "conditions": "translocase-deficient amniocytes", "description": "Because a sibling had died at the age of four days from severe translocase deficiency, amniocytes obtained from a fetus were examined for competency in fatty acid metabolism. […] Fibroblasts taken from the deceased sibling and amniocytes taken from the fetus were both evaluated for fatty acid metabolism of n-heptanoic acid (C7) using a tandem mass spectrometry assay previously reported. (Yang, et al. 1998. “Identification of four novel mutations in patients with carnitine palmitoyltransferase II (CPT II) deficiency,” Mol Genet Metab 64:229-236). […]"}, "fasting rats": {"test_system": "fasting rats", "conditions": "rats fed the triglyceride; Anderson et al. 1975; cited from earlier work"}, "normal fibroblasts": {"test_system": "normal fibroblasts", "assay": "Tandem mass spectrometry assay of labeled fatty acid oxidation", "format": "cell-based, human", "description": "Fibroblasts taken from the deceased sibling and amniocytes taken from the fetus were both evaluated for fatty acid metabolism of n-heptanoic acid (C7) using a tandem mass spectrometry assay previously reported. (Yang, et al. 1998. “Identification of four novel mutations in patients with carnitine palmitoyltransferase II (CPT II) deficiency,” Mol Genet Metab 64:229-236). The mass spectrometry results are presented for palmitate in FIG. 3A and triheptanoin in FIG. 3B for the fibroblasts taken from the deceased sibling, and for palmitate in FIG. 4A and triheptanoin in FIG. 4B for the amniocytes taken from the fetus. […]\nThe normal cell line and eleven abnormal cell lines were analyzed in groups of three. For quantitative purposes, labeled internal standards were included in each analysis and are designated as “IS” on the first profile in each group. […]"}, "[4]": {"test_system": "long-chain L-3-hydroxy-acyl-CoA dehydrogenase (LCHAD) deficient fibroblasts", "assay": "Tandem mass spectrometry assay of labeled fatty acid oxidation", "format": "cell-based, human", "method": "as §1, §2, §3"}, "[5]": {"test_system": "carnitine palmitoyltransferase I (CPT I) deficient fibroblasts", "assay": "Tandem mass spectrometry assay of labeled fatty acid oxidation", "format": "cell-based, human", "method": "as §1, §2, §3"}, "[6]": {"test_system": "mitochondrial trifunctional protein (TRIFUNCTIONAL) deficient fibroblasts", "assay": "Tandem mass spectrometry assay of labeled fatty acid oxidation", "format": "cell-based, human", "method": "as §1, §2, §3"}, "[7]": {"test_system": "short-chain acyl-CoA dehydrogenase (SCAD) deficient fibroblasts", "assay": "Tandem mass spectrometry assay of labeled fatty acid oxidation", "format": "cell-based, human", "method": "as §1, §2, §3"}, "[8]": {"test_system": "carnitine palmitoyltransferase II (CPT II) deficient fibroblasts", "assay": "Tandem mass spectrometry assay of labeled fatty acid oxidation", "format": "cell-based, human", "conditions": "for accumulation of labeled acylcarnitine of the precursor: m/z417 for D3-C16, m/z319 for D3-C9", "method": "as §1, §2, §3"}, "[9]": {"test_system": "electron transfer flavoprotein QO dehydrogenase-mild (ETF-DH mild) deficient fibroblasts", "assay": "Tandem mass spectrometry assay of labeled fatty acid oxidation", "format": "cell-based, human", "method": "as §1, §2, §3"}, "[10]": {"test_system": "VLCAD-H (hypoglycemic form of very-long-chain acyl-CoA dehydrogenase) deficient fibroblasts", "assay": "Tandem mass spectrometry assay of labeled fatty acid oxidation", "format": "cell-based, human", "method": "as §1, §2, §3"}, "[11]": {"test_system": "electron transfer flavoprotein QO dehydrogenase-severe (ETF-DH severe) deficient fibroblasts", "assay": "Tandem mass spectrometry assay of labeled fatty acid oxidation", "format": "cell-based, human", "method": "as §1, §2, §3"}, "[12]": {"test_system": "VLCAD-C (cardiac form of very-long-chain acyl-CoA dehydrogenase) deficient fibroblasts", "assay": "Tandem mass spectrometry assay of labeled fatty acid oxidation", "format": "cell-based, human", "method": "as §1, §2, §3"}},
  "note": "Entries after “also recorded” stand apart in the source; their conditions may differ.",
  "data": [
    {"smiles": "[2H]C([2H])([2H])CCCCCCC(=O)O", "note": "[D3-C8, 8-^2H3-octanoate]", "values": [
      {"measurement": "accumulation of labeled acylcarnitine of the precursor", "setting": "[1]", "value": "relative accumulation of m/z 305"},
      {"measurement": "accumulation of labeled acylcarnitine", "setting": "[2]", "value": "relative accumulation of m/z 305"}
    ]},
    {"smiles": "CCCCCCC(=O)O", "note": "[n-heptanoic acid]", "values": [
      {"measurement": "oxidation of the fatty acid (labeled acylcarnitine profile)", "setting": "[1]", "value": "successful oxidation; also recorded: readily oxidized to propionyl-CoA"},
      {"measurement": "oxidation of the fatty acid", "setting": "[3]", "value": "readily oxidized to propionyl-CoA"}
    ]},
    {"smiles": "CCCCCCCCCCC(=O)OCC(COC(=O)CCCCCCCCCC)OC(=O)CCCCCCCCCC", "note": "[triundecanoin]", "values": [
      {"measurement": "blood glucose levels during prolonged fasting", "setting": "fasting rats", "value": "maintain nonfasting blood glucose levels during prolonged fasting"}
    ]},
    {"smiles": "[2H]C([2H])([2H])CCCCCCCCCCCCCCC(=O)O", "note": "[D3-C16, 16-^2H3-palmitate]", "values": [
      {"measurement": "profile of labeled acylcarnitine intermediates", "setting": "normal fibroblasts", "value": "from C16 down to and including C4"},
      {"measurement": "oxidation of the fatty acid (labeled acylcarnitine profile)", "setting": "[1]", "value": "no oxidation occurs"},
      {"measurement": "accumulation of labeled acylcarnitine of the precursor", "setting": "[1]", "value": "large quantities of labeled palmitoylcarnitine"},
      {"measurement": "oxidation of the fatty acid (labeled acylcarnitine profile)", "setting": "[2]", "value": "oxidation clearly proceed down to the level of C8"},
      {"measurement": "accumulation of labeled acylcarnitine", "setting": "[2]", "value": "marked accumulation"},
      {"measurement": "profile of labeled acylcarnitines", "setting": "[4]", "value": "abnormal profiles of labeled acylcarnitines"},
      {"measurement": "amount of labeled palmitoylcarnitine (m/z417)", "setting": "[5]", "value": "minimal amount"},
      {"measurement": "oxidation of the fatty acid (labeled acylcarnitine profile)", "setting": "[5]", "value": "virtually no oxidation occurs"},
      {"measurement": "profile of labeled acylcarnitines", "setting": "[6]", "value": "abnormal profiles of labeled acylcarnitines"},
      {"measurement": "oxidation of the fatty acid (labeled acylcarnitine profile)", "setting": "[7]", "value": "oxidation stops at m/z249"},
      {"measurement": "oxidation of the fatty acid (labeled acylcarnitine profile)", "setting": "[8]", "value": "no oxidation occurs"},
      {"measurement": "accumulation of labeled acylcarnitine of the precursor", "setting": "[8]", "value": "large quantities of labeled palmitoylcarnitine"},
      {"measurement": "oxidation of the fatty acid (labeled acylcarnitine profile)", "setting": "[9]", "value": "abnormal profiles of labeled acylcarnitines"},
      {"measurement": "profile of labeled acylcarnitines", "setting": "[10]", "value": "abnormal profiles of labeled acylcarnitines"},
      {"measurement": "oxidation of the fatty acid (labeled acylcarnitine profile)", "setting": "[11]", "value": "abnormal profiles of labeled acylcarnitines"},
      {"measurement": "profile of labeled acylcarnitines", "setting": "[12]", "value": "abnormal profiles of labeled acylcarnitines"}
    ]},
    {"smiles": "[2H]C([2H])([2H])CCCCCCCC(=O)O", "note": "[D3-C9, 9-^2H3-nonanoate]", "values": [
      {"measurement": "accumulation of labeled acylcarnitine of the precursor", "setting": "[1]", "value": "an increase was observed at m/z319"},
      {"measurement": "accumulation of labeled acylcarnitine of the precursor", "setting": "[4]; m/z319 for D3-C9", "value": "an increase was observed at m/z319"},
      {"measurement": "accumulation of labeled acylcarnitine of the precursor", "setting": "[8]", "value": "an increase was observed at m/z319"}
    ]},
    {"smiles": "[2H]C([2H])([2H])CCCCCC(=O)O", "note": "[D3-C7, 7-^2H3-heptanoate]", "values": [
      {"measurement": "relative amount of 2H3-propionate-C3 (m/z235) produced", "setting": "[1]; compared to normal cells", "value": "either comparable to or in excess of the amount seen in normal cells"},
      {"measurement": "accumulation of labeled acylcarnitine", "setting": "[2]", "value": "markedly increased"},
      {"measurement": "relative amount of 2H3-propionate-C3 (m/z235) produced", "setting": "[4]; compared to normal cells", "value": "either comparable to or in excess of the amount seen in normal cells"},
      {"measurement": "relative amount of 2H3-propionate-C3 (m/z235) produced", "setting": "[5]; compared to normal cells", "value": "either comparable to or in excess of the amount seen in normal cells"},
      {"measurement": "relative amount of 2H3-propionate-C3 (m/z235) produced", "setting": "[6]; compared to normal cells", "value": "either comparable to or in excess of the amount seen in normal cells"},
      {"measurement": "relative amount of 2H3-propionate-C3 (m/z235) produced", "setting": "[7]; compared to normal cells", "value": "either comparable to or in excess of the amount seen in normal cells"},
      {"measurement": "relative amount of 2H3-propionate-C3 (m/z235) produced", "setting": "[8]; compared to normal cells", "value": "either comparable to or in excess of the amount seen in normal cells"},
      {"measurement": "oxidation of the fatty acid (labeled acylcarnitine profile)", "setting": "[9]", "value": "no oxidation of labeled 7-^2H3-heptanoate was observed"},
      {"measurement": "relative amount of 2H3-propionate-C3 (m/z235) produced", "setting": "[10]; compared to normal cells", "value": "either comparable to or in excess of the amount seen in normal cells"},
      {"measurement": "oxidation of the fatty acid (labeled acylcarnitine profile)", "setting": "[11]", "value": "no oxidation of labeled 7-^2H3-heptanoate was observed"},
      {"measurement": "relative amount of 2H3-propionate-C3 (m/z235) produced", "setting": "[12]; compared to normal cells", "value": "either comparable to or in excess of the amount seen in normal cells"}
    ]}
  ]
}
